According to patent US20020137929A1, “1 - (3-heterocyclylphenyl) isothiourea, -isourea, -guanidine and -amidine herbicidal agents” (Intellectual Property Department, BASF Aktiengesellschaft, priority 1998, published 2002):

Assays:
SETVI (Foxtail, Green) = experiment: Postemergence herbicidal evaluation; type: in vivo, Setaria viridis; details: postemergence
Procedure, shortened: (§1)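 Two-week seedlings sprayed postemergence at 40 psi; formulation: 1:1 acetone/water, 0.5% TWEEN 20; application ≈0.0156–0.500 kg/ha. Greenhouse grow-out, then 0–9 visual scoring at 4–5 weeks.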

[1] = tested on: ECHORC (Watergrass (Calif.)); experiment: Preemergence weed control under flooded paddy conditions; type: in vivo, Echinochloa oryzoides; details: rated 3-4 weeks after treatment
Procedure, shortened: (§2)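 Seeds or propagules sown in silt loam kept flooded 1.5-3 cm; compounds in 50/50 acetone/water pipetted into flood water at about 0.0313 to 0.500 kg/ha. Greenhouse; visual 0-9 rating versus untreated control 3-4 weeks after treatment.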

GALAP (Galium) = experiment: Postemergence herbicidal evaluation; type: in vivo, Galium aparine; details: postemergence
Procedure, shortened: as §1

ORYSAT (Rice, Tebonnet) = experiment: Postemergence herbicidal evaluation; type: in vivo, Oryza sativa, (L.) Tebonnet; details: postemergence
Procedure, shortened: as §1

MOOVA (Monochoria) = experiment: Preemergence weed control under flooded paddy conditions; type: in vivo, Monochoria vaginalis; details: rated 3-4 weeks after treatment
Procedure, shortened: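 Greenhouse paddy assay. Acetone/water (50/50 v/v) solutions dosed into flood water, equivalent to about 0.0313 to 0.500 kg/ha active ingredient, over seeds planted 0.5 cm deep in silt loam. Score: 0-9 visual, based on stand, vigor, malformation, size and chlorosis, 3 to 4 weeks after treatment.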

ZEAMX (Corn, Field) = experiment: Preemergence herbicidal evaluation; type: in vivo, Zea mays; details: rated 4-5 weeks after treatment
Procedure, shortened: (§3)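 Preemergence soil application of compound, sprayed in aqueous acetone at rates equivalent to about 0.0156 to 0.500 kg per hectare onto freshly sown cups. Plant response was judged by eye on a 0-9 scale four to five weeks later.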

ECHCG (Barnyardgrass) = experiment: Postemergence herbicidal evaluation; type: in vivo, Echinochloa crus-galli; details: postemergence
Procedure, shortened: as §1

ABUTH (Velvetleaf) = experiment: Postemergence herbicidal evaluation; type: in vivo, Abutilon theophrasti; details: postemergence
Procedure, shortened: as §1

[2] = tested on: IPOHE (Morningglory, Ivyleaf); experiment: Preemergence herbicidal evaluation; type: in vivo, Ipomoea hederacea; details: rated 4-5 weeks after treatment
Procedure, shortened: as §3

[3] = tested on: TRZAWR (Wheat, Winter, cv Riband); experiment: Preemergence herbicidal evaluation; type: in vivo, Triticum aestivum; details: rated 4-5 weeks after treatment
Procedure, shortened: as §3

CYPIR (Rice Flatsedge) = experiment: Preemergence weed control under flooded paddy conditions; type: in vivo, Cyperus iria; details: rated 3-4 weeks after treatment
Procedure, shortened: as §2

## COCCOC(=O)CN1C(=O)CSC1=Nc1cc(-n2c(=O)cc(C(F)(F)F)n(C)c2=O)c(F)cc1Cl [Compound 107, 2-Methoxyethyl 2-{{2-chloro-5-[3,6-dihydro-3-methyl-2,6-dioxo-4-(trifluoromethyl)-1(2H)-pyrimidinyl]-4-fluorophenyl}imino}-4-oxo-3-thiazolidineacetate]
SETVI (Foxtail, Green); rate 0.0158 kg/ha
  herbicidal rating SETVI: 1.0
SETVI (Foxtail, Green); rate 0.0315 kg/ha
  herbicidal rating SETVI: 9.0
SETVI (Foxtail, Green); rate 0.0630 kg/ha
  herbicidal rating SETVI: 9.0
[1]; 0.0313 kg/ha
  ECHORC herbicidal effect rating: 0.0
[1]; 0.0625 kg/ha
  ECHORC herbicidal effect rating: 4.0
[1]; 0.1250 kg/ha
  ECHORC herbicidal effect rating: 4.0
[1]; 0.2500 kg/ha
  ECHORC herbicidal effect rating: 4.0
GALAP (Galium); rate 0.0158 kg/ha
  herbicidal rating GALAP: 0.0
GALAP (Galium); rate 0.0315 kg/ha
  herbicidal rating GALAP: 0.0
GALAP (Galium); rate 0.0630 kg/ha
  herbicidal rating GALAP: 0.0
ORYSAT (Rice, Tebonnet); rate 0.0158 kg/ha
  herbicidal rating ORYSAT: 2.0
ORYSAT (Rice, Tebonnet); rate 0.0315 kg/ha
  herbicidal rating ORYSAT: 2.0
ORYSAT (Rice, Tebonnet); rate 0.0630 kg/ha
  herbicidal rating ORYSAT: 4.5
MOOVA (Monochoria); 0.0313 kg/ha
  MOOVA herbicidal effect rating: 4.0
MOOVA (Monochoria); 0.0625 kg/ha
  MOOVA herbicidal effect rating: 6.0
MOOVA (Monochoria); 0.1250 kg/ha
  MOOVA herbicidal effect rating: 7.0
MOOVA (Monochoria); 0.2500 kg/ha
  MOOVA herbicidal effect rating: 9.0
ZEAMX (Corn, Field); rate 0.0313 kg/ha
  Preemergence herbicidal rating ZEAMX: 0.0
ZEAMX (Corn, Field); rate 0.0625 kg/ha
  Preemergence herbicidal rating ZEAMX: 0.0
ZEAMX (Corn, Field); rate 0.1250 kg/ha
  Preemergence herbicidal rating ZEAMX: 1.0
ZEAMX (Corn, Field); rate 0.2500 kg/ha
  Preemergence herbicidal rating ZEAMX: 4.0
ECHCG (Barnyardgrass); rate 0.0158 kg/ha
  herbicidal rating ECHCG: 1.0
ECHCG (Barnyardgrass); rate 0.0315 kg/ha
  herbicidal rating ECHCG: 1.0
ECHCG (Barnyardgrass); rate 0.0630 kg/ha
  herbicidal rating ECHCG: 3.0
ABUTH (Velvetleaf); rate 0.0158 kg/ha
  herbicidal rating ABUTH: 9.0
ABUTH (Velvetleaf); rate 0.0315 kg/ha
  herbicidal rating ABUTH: 7.0
ABUTH (Velvetleaf); rate 0.0630 kg/ha
  herbicidal rating ABUTH: 9.0
[2]; rate 0.0313 kg/ha
  Preemergence herbicidal rating IPOHE: 0.0
[2]; rate 0.0625 kg/ha
  Preemergence herbicidal rating IPOHE: 0.0
[2]; rate 0.1250 kg/ha
  Preemergence herbicidal rating IPOHE: 1.0
[2]; rate 0.2500 kg/ha
  Preemergence herbicidal rating IPOHE: 7.0
[3]; rate 0.0313 kg/ha
  Preemergence herbicidal rating TRZAWR: 0.0
[3]; rate 0.0625 kg/ha
  Preemergence herbicidal rating TRZAWR: 0.0
[3]; rate 0.1250 kg/ha
  Preemergence herbicidal rating TRZAWR: 0.0
[3]; rate 0.2500 kg/ha
  Preemergence herbicidal rating TRZAWR: 4.0
CYPIR (Rice Flatsedge); 0.0313 kg/ha
  CYPIR herbicidal effect rating: 0.0
CYPIR (Rice Flatsedge); 0.0625 kg/ha
  CYPIR herbicidal effect rating: 0.0
CYPIR (Rice Flatsedge); 0.1250 kg/ha
  CYPIR herbicidal effect rating: 4.0
CYPIR (Rice Flatsedge); 0.2500 kg/ha
  CYPIR herbicidal effect rating: 7.0
